Laboratory results: patent US20240115654A1, “INTRAVENOUS ADMINISTRATION OF ENGINEERED ANTIMICROBIAL AMPHIPHILIC PEPTIDES” (priority 2021, published 2024)
Values after ≈ are worked out from the molar mass of the structure shown. Read-outs that look alike come from different tables or passages of the source. Peptide text beside a SMILES is read from it.

Experiments:
Type in all cases: cell-based
[1] = system: Acinetobacter baumannii ATCC 19606 (non-MDR); conditions: Acinetobacter baumannii ATCC 19606 (non-MDR)
Procedure: (§1) Each peptide was formulated in PBS buffer prior to testing. Peptides of SEQ ID NO:5 and SEQ ID NO:8 were brought up in 100% DMSO with 0.002% polysorbate-80 at 1.28 mg/mL (40× the highest final test concentration of 32 mcg/mL). Final test concentration of DMSO was 2.5% in the assay at the first dilution for those two compounds.
(§2) Mueller Hinton II broth (MHB II; BD; Lot Nos. 6258541 and 7143896) was used for MIC testing of aerobic organisms. 0.002% polysorbate 80 (P80) was added to the test medium.
(§3) MIC values were determined using a broth microdilution procedure described by CLSI (1, 3). Automated liquid handlers (Multidrop 384, Labsystems, Helsinki, Finland; Biomek 2000 and Biomek FX, Beckman Coulter, Fullerton CA) were used to conduct serial dilutions and liquid transfers.
(§4) To prepare the drug mother plates, which would provide the serial peptide dilutions for the replicate daughter plates, the wells of columns 2-12 of standard 96-well microdilution plates (Costar 3795) were filled with 150 μl of the designated diluent for each row of peptide. The test articles and comparator compounds (300 μl at 40× the highest concentration to be tested) were dispensed into the appropriate wells in column 1. The Biomek 2000 was then used to make 2-fold serial dilutions in the mother plates from column 1 through column 11. The wells of Column 12 contained no drug and served as the organism growth control wells for the assay.
(§5) The daughter plates were loaded with 185 μL per well of MHB II using the Multidrop 384. The daughter plates were completed on the Biomek FX instrument which transferred 5 uL of peptide solution from each well of a mother plate to the corresponding well of each daughter plate in a single step. A standardized inoculum of each test organism was prepared per CLSI methods. The inoculum for each organism was dispensed into sterile reservoirs divided by length (Beckman Coulter), and the Biomek 2000 was used to inoculate the plates. Daughter plates were placed on the Biomek 2000 work surface in reverse orientation so that inoculation took place from low to high drug concentration. The plates were then inoculated with 10 μL of the inoculum resulting in a final cell density of approximately 5×10^5 CFU/mL, per well.
(§6) Plates were stacked 3-4 high, covered with a lid on the top plate, placed in plastic bags, and incubated at 35° C. for 16 to 20 hrs. Following incubation, the microplates were removed from the incubator and viewed from the bottom using a plate viewer. […] The MIC was read and recorded as the lowest concentration of peptide that inhibited visible growth of the organism.

[2] = system: Enterococcus faecalis ATCC 29212 (VSE; QC); conditions: Enterococcus faecalis ATCC 29212 (VSE; QC)
Procedure: as §1, §2, §3, §4, §5, §6

[3] = system: Enterococcus faecalis ATCC 700802 (V583 VRE)
Procedure: as §1, §2, §3, §4, §5, §6

[4] = system: Enterococcus faecium ATCC 51559 (VRE); conditions: Enterococcus faecium ATCC 51559 (VRE)
Procedure: as §1, §2, §3, §4, §5, §6

[5] = system: Escherichia coli ATCC 25922 (QC)
Procedure: as §1, §2, §3, §4, §5, §6

[6] = system: Escherichia coli ATCC 35218 (ESBL); conditions: Escherichia coli ATCC 35218 (ESBL)
Procedure: as §1, §2, §3, §4, §5, §6

[7] = system: Escherichia coli ATCC BAA-2471 (NDM-1); conditions: Escherichia coli ATCC BAA-2471 (NDM-1)
Procedure: as §1, §2, §3, §4, §5, §6

[8] = system: Klebsiella pneumoniae ATCC BAA-1705 (KPC)
Procedure: as §1, §2, §3, §4, §5, §6

[9] = system: Pseudomonas aeruginosa ATCC 27853 (non-MDR; QC)
Procedure: as §1, §2, §3, §4, §5, §6

[10] = system: Pseudomonas aeruginosa ATCC BAA-2109 (MDR); conditions: Pseudomonas aeruginosa ATCC BAA-2109 (MDR)
Procedure: as §1, §2, §3, §4, §5, §6

[11] = system: Staphylococcus aureus ATCC 29213 (MSSA; QC); conditions: Staphylococcus aureus ATCC 29213 (MSSA; QC)
Procedure: as §1, §2, §3, §4, §5, §6

[12] = system: Staphylococcus aureus ATCC 43300 (MRSA)
Procedure: as §1, §2, §3, §4, §5, §6

[13] = system: Staphylococcus aureus NRS382 (USA100; HA-MRSA)
Procedure: as §1, §2, §3, §4, §5, §6

[14] = system: Streptococcus agalactiae ATCC 13813
Procedure: as §1, §2, §3, §4, §5, §6

[15] = system: Streptococcus pneumoniae ATCC 49619 (QC); conditions: Streptococcus pneumoniae ATCC 49619 (QC)
Procedure: as §1, §2, §3, §4, §5, §6

[16] = system: Streptococcus pyogenes ATCC 49399; conditions: Streptococcus pyogenes ATCC 49399
Procedure: as §1, §2, §3, §4, §5, §6

Row | Compound | MIC [1] | MIC [2] | MIC [4] | MIC [6] | MIC [7] | MIC [10] | MIC [11] | MIC [14] | MIC [15] | MIC [16] | further results
1 | CC(C)[C@H](NC(=O)[C@H](Cc1c[nH]c2ccccc12)NC(=O)[C@H](CCCNC(=N)N)NC(=O)[C@H](CCCNC(=N)N)NC(=O)[C@@H](NC(=O)[C@@H](NC(=O)[C@H](CCCNC(=N)N)NC(=O)[C@@H](NC(=O)[C@@H](NC(=O)[C@H](CCCNC(=N)N)NC(=O)[C@H](CCCNC(=N)N)NC(=O)[C@H](Cc1c[nH]c2ccccc12)NC(=O)[C@@H](NC(=O)[C@H](CCCNC(=N)N)NC(=O)[C@H](CCCNC(=N)N)NC(=O)[C@@H](NC(=O)[C@H](CCCNC(=N)N)NC(=O)[C@H](CCCNC(=N)N)NC(=O)[C@@H](NC(=O)[C@H](Cc1c[nH]c2ccccc12)NC(=O)[C@H](CCCNC(=N)N)NC(=O)[C@@H](N)CCCNC(=N)N)C(C)C)C(C)C)C(C)C)C(C)C)C(C)C)C(C)C)C(C)C)C(=O)N[C@@H](CCCNC(=N)N)C(=O)N[C@@H](CCCNC(=N)N)C(N)=O [SEQ ID NO: 1] (H-RRWVRRVRRVWRRVVRVVRRWVRR-NH2) | 2 µg/mL (≈ 0.588 µM) | 8 µg/mL (≈ 2.35 µM) | 2 µg/mL (≈ 0.588 µM) | 8 µg/mL (≈ 2.35 µM) | 2 µg/mL (≈ 0.588 µM) | 4 µg/mL (≈ 1.18 µM) | 8 µg/mL (≈ 2.35 µM) | 8 µg/mL (≈ 2.35 µM) | 16 µg/mL (≈ 4.71 µM) | 8 µg/mL (≈ 2.35 µM) | MIC ([3]; ATCC 700802): 4 µg/mL (≈ 1.18 µM); MIC ([5]; ATCC 25922): 4 µg/mL (≈ 1.18 µM); MIC ([8]; ATCC BAA-1705): 8 µg/mL (≈ 2.35 µM); MIC ([9]; ATCC 27853): 8 µg/mL (≈ 2.35 µM); MIC ([12]; ATCC 43300): 4 µg/mL (≈ 1.18 µM); MIC ([13]; USA100): 4 µg/mL (≈ 1.18 µM)
2 | Colistin [reference compound] | 0.25 µg/mL | >32 µg/mL | >32 µg/mL | 0.12 µg/mL | 0.06 µg/mL | 0.12 µg/mL | >32 µg/mL | >32 µg/mL | >32 µg/mL | >32 µg/mL | MIC ([3]; Enterococcus faecalis ATCC 700802 (V583 VRE)): >32 µg/mL; MIC ([5]; Escherichia coli ATCC 25922 (QC)): 0.12 µg/mL; MIC ([8]; Klebsiella pneumoniae ATCC BAA-1705 (KPC)): 0.12 µg/mL; MIC ([9]; Pseudomonas aeruginosa ATCC 27853 (non-MDR; QC)): 0.25 µg/mL; MIC ([12]; Staphylococcus aureus ATCC 43300 (MRSA)): >32 µg/mL; MIC ([13]; Staphylococcus aureus NRS382 (USA100; HA-MRSA)): >32 µg/mL
